Read-outs that look alike come from different tables or passages of the source.
Legend:
DYRK1A [1] = conditions: cited from earlier work
PIM3 = PIM3 (Homo sapiens, UniProt Q86V86); design: purchased ProQinase (Freiburg, Germany); conditions: cited from earlier work
DYRK2 [2] = molecular target: T1, DYRK2 (Homo sapiens, UniProt Q92630); conditions: cited from earlier work
T1 construct: purchased ProQinase (Freiburg, Germany)
T1 sequence (Q92630 1-601): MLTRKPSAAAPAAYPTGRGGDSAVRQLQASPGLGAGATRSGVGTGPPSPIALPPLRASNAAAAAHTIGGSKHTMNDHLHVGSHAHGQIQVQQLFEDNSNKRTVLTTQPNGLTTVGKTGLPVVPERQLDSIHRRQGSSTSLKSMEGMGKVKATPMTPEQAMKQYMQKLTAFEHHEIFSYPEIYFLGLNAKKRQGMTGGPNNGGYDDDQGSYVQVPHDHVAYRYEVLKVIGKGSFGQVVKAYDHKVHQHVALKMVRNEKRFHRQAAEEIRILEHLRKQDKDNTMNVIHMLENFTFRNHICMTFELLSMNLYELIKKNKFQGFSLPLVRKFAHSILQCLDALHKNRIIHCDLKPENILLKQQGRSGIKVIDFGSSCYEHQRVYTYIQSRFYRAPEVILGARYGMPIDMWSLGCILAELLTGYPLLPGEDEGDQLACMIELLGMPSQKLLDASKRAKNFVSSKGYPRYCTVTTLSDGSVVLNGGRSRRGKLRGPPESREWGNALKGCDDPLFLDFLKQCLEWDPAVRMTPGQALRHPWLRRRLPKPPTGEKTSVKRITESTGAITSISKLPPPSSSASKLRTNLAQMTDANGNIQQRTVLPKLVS

DYRK2 [3] = molecular target: T1, DYRK2; assay: Kinase-GLO luminescent kinase assay; type: biochemical; conditions: 1 μM compound; means of at least 3 measurements
Protocol: (§1) Bacterial expression plasmids for GST-DYRK1A-ΔC and GST-DYRK2 have been described earlier. […] Expression in logarithmically growing E. coli culture was performed for 3 h at 37°C (GST-DYRK1A-ΔC and GST-DYRK2), 3 h at 26°C (GST-HIPK2cat), over night at 28°C (GST-CLK1cat) or over night at room temperature (GST-DYRK1Bcat).
(§2) Compounds were screened for inhibitory effects against GST-DYRK1A-ΔC, GST-DYRK1Bcat, GST-DYRK2, GST-CLK1cat or GST-HIPK2cat using the Kinase-GLO Luminescent Kinase Assay from Promega. Assays were performed in a total volume of 10 μL in kinase-buffer (25 mM Hepes pH 7.4, 0.5 mM DTT, 5 mM MgCl2, 5 μM ATP) with appropriate peptide substrates (20 μM DYRKtide for the DYRKs and 100 μM DYRKtide for HIPK2, […]; or 100 μM RS domain-derived peptide for CLK1, […]). Assays were started with this amount of a kinase preparation that consumed approximately 90% of the ATP in the assay (linear range of the kinase titration curve). The reactions were run at room temperature for 30 min before 10 μL Kinase-GLO reagent was added. After incubation at room temperature for additional 10 min, luminescence was recorded for 1 s.

DYRK1A [4] = molecular target: T2, DYRK1A (Homo sapiens, UniProt Q13627); assay: Kinase-GLO luminescent kinase assay; type: biochemical; conditions: 1 μM compound; means of at least 3 measurements
T2 construct: purchased ProQinase (Freiburg, Germany)
Protocol: as §1, §2

CLK1 [5] = molecular target: T3, CLK1 (Homo sapiens, UniProt P49759); design: purchased ProQinase (Freiburg, Germany); conditions: 10 μM; cited from earlier work
Haspin = conditions: cited from earlier work
DYRK1B [6] = molecular target: T4, DYRK1B (Homo sapiens, UniProt Q9Y463); design: purchased ProQinase (Freiburg, Germany); conditions: 10 μM; cited from earlier work
PIM1 = PIM1 (Homo sapiens, UniProt P11309); design: purchased ProQinase (Freiburg, Germany); conditions: cited from earlier work
HIPK1 = HIPK1 (Homo sapiens, UniProt Q86Z02); design: purchased ProQinase (Freiburg, Germany); conditions: cited from earlier work
HIPK4 = molecular target: T5, HIPK4 (Homo sapiens, UniProt Q8NE63); design: purchased ProQinase (Freiburg, Germany); conditions: 10 μM; cited from earlier work
T5 sequence (Q8NE63 1-616): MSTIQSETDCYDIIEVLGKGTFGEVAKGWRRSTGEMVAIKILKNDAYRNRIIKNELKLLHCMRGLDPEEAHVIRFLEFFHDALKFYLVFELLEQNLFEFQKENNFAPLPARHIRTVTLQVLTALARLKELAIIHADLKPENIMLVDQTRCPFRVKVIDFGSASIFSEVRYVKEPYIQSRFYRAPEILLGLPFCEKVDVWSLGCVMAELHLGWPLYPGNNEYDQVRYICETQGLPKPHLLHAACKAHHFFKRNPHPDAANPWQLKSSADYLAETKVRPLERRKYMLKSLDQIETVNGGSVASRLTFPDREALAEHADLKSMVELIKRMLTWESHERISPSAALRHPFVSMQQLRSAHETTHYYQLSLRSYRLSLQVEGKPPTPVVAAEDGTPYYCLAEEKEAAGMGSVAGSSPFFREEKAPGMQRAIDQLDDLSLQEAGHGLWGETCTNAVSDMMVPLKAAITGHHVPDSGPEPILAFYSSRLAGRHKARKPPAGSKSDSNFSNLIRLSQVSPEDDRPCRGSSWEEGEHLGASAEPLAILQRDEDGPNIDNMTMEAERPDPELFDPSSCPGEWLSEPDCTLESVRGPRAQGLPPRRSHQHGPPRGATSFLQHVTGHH

IRAK1 = IRAK1 (Homo sapiens, UniProt P51617); design: purchased ProQinase (Freiburg, Germany); conditions: 10 μM; cited from earlier work
HIPK2 [7] = molecular target: T6, HIPK2 (Homo sapiens, UniProt Q9H2X6); design: purchased ProQinase (Freiburg, Germany); conditions: cited from earlier work
HIPK3 = HIPK3 (Homo sapiens, UniProt Q9H422); design: purchased ProQinase (Freiburg, Germany); conditions: cited from earlier work
DYRK1B [8] = molecular target: T4, DYRK1B; assay: Kinase-GLO luminescent kinase assay; type: biochemical; design: made in house; host or cells: E. coli; conditions: 1 μM compound; means of at least 3 measurements
Protocol: as §1, §2

HIPK2 [9] = molecular target: T6, HIPK2; assay: Kinase-GLO luminescent kinase assay; type: biochemical; design: made in house; host or cells: E. coli; conditions: 10 μM compound; means of at least 3 measurements
Protocol: as §1, §2

CLK1 [10] = molecular target: T3, CLK1; assay: Kinase-GLO luminescent kinase assay; type: biochemical; design: made in house; host or cells: E. coli; conditions: 1 μM compound; means of at least 3 measurements
Protocol: as §1, §2

PIM2 = PIM2 (Homo sapiens, UniProt Q9P1W9); design: purchased ProQinase (Freiburg, Germany); conditions: cited from earlier work
DYRK1A [11] = molecular target: T2, DYRK1A; assay: SF3B1 Thr434 phosphorylation in HeLa cells (immunoblot); type: cell-based; conditions: HeLa cells expressing GFP-SF3B1-NT, 18 h
Protocol: Fig 4 Inhibition of SF3B1 phosphorylation by DYRK1A in HeLa cells. HeLa cells expressing GFP-SF3B1-NT were treated with the indicated compounds for 18 h. The phosphorylation state of SF3B1 was determined by immunoblotting with pT434 antibody, and the results were normalized to the total amount of SF3B1 immunoreactivity. A, Representative western blots. […] The vertical line indicates where irrelevant lanes were deleted from the final image. B, The column diagram summarizes the quantitative evaluation of 3–6 experiments for each compound (means + SD).
(500 ng/well) using FuGENE HD (Promega, Mannheim, Germany).

CLK3 = molecular target: T7, CLK3 (Homo sapiens, UniProt P49761); conditions: 10 μM; cited from earlier work
T7 construct: purchased ProQinase (Freiburg, Germany)

CLK2 = molecular target: T8, CLK2 (Homo sapiens, UniProt P49760); conditions: 10 μM; cited from earlier work
T8 construct: purchased ProQinase (Freiburg, Germany)

DYRK3 = molecular target: T9, DYRK3 (Homo sapiens, UniProt O43781); conditions: 10 μM; cited from earlier work
T9 construct: purchased ProQinase (Freiburg, Germany)
T9 sequence (O43781 1-588): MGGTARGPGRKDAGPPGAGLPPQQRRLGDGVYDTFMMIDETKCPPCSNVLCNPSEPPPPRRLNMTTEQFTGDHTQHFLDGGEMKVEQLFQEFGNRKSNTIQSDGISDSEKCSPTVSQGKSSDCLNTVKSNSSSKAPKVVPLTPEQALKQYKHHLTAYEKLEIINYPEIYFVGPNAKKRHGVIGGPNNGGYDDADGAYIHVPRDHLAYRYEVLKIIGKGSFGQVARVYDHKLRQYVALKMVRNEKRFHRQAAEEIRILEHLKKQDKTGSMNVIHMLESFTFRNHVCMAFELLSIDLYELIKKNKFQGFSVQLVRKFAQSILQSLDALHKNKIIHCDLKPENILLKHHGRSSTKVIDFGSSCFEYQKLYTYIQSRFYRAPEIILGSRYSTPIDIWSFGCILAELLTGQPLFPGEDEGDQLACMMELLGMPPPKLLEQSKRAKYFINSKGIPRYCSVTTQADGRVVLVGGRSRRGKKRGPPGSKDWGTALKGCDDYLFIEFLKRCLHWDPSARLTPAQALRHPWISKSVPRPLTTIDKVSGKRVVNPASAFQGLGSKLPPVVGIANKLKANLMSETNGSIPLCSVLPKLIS

HIPK3, sequence (Q9H422 whole entry): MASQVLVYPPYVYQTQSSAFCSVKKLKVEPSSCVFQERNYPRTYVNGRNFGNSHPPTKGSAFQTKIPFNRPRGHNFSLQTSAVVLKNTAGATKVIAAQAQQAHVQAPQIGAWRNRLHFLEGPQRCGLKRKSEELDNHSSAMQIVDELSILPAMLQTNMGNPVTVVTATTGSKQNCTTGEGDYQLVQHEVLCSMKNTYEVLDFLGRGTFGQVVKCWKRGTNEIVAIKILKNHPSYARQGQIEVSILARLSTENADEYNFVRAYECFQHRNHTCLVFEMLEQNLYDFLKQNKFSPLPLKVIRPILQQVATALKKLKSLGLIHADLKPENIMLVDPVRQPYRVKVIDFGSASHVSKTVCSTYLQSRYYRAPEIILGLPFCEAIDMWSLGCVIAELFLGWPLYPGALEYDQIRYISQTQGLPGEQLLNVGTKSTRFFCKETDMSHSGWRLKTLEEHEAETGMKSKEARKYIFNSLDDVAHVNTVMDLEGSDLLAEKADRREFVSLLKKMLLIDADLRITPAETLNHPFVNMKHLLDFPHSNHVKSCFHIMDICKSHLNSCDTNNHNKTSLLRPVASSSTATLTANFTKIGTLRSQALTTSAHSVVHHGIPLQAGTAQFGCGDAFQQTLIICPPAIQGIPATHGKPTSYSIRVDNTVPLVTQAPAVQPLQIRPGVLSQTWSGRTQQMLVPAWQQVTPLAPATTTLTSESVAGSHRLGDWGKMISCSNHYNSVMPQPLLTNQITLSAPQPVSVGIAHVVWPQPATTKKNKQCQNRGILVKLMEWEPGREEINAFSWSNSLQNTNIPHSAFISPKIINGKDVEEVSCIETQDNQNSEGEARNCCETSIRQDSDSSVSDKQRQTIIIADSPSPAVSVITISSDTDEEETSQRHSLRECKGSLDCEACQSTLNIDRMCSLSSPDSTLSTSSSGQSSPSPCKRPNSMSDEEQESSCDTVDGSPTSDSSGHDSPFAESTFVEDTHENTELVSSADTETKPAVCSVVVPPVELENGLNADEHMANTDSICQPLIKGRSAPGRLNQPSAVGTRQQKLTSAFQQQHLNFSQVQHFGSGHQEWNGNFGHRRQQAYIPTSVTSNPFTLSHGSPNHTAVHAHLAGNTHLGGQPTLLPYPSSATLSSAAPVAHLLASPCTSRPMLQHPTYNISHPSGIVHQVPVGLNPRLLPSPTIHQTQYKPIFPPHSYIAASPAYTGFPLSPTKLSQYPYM
HIPK1, sequence (Q86Z02 whole entry): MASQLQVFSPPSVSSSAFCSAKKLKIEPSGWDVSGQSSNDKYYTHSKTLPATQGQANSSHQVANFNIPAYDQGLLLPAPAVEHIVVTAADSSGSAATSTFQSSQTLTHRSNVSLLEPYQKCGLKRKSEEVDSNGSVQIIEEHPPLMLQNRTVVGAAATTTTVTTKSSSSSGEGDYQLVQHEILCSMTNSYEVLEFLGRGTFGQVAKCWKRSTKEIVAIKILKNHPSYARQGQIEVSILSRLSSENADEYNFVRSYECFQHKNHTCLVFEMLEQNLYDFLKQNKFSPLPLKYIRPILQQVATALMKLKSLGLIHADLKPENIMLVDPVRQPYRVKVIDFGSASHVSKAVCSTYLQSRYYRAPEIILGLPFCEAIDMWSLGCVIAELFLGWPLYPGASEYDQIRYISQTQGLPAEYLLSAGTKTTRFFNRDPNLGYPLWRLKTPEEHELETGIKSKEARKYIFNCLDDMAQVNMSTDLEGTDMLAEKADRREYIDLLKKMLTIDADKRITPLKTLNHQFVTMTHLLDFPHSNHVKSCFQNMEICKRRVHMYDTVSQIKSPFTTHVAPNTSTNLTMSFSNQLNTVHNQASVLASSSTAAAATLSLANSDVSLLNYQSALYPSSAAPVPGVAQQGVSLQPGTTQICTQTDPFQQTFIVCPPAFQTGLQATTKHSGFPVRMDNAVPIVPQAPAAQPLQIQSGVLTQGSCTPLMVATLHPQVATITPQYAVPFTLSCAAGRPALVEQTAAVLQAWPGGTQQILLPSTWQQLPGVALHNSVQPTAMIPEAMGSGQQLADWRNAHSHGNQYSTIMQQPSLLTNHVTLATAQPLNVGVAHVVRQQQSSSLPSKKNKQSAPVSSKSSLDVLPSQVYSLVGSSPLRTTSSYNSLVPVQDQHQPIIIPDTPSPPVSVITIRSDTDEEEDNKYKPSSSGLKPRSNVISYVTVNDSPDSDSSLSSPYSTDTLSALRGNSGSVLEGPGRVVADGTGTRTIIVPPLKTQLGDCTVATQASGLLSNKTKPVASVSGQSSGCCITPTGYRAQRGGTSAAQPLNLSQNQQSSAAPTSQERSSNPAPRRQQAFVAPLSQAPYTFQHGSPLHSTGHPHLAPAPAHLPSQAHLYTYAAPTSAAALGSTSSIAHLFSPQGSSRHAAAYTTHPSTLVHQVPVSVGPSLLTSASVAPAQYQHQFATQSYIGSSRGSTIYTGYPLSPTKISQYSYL
PIM2, sequence (Q9P1W9 whole entry): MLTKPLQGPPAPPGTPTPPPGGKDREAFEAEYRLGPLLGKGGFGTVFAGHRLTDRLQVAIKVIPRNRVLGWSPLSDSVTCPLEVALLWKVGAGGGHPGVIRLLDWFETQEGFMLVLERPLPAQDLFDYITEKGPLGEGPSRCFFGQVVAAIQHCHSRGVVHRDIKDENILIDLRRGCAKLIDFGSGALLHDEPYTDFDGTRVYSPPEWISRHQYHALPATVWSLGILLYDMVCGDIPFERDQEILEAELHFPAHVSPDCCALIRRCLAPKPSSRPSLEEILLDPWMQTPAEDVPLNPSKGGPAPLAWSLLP
PIM1, sequence (P11309 whole entry): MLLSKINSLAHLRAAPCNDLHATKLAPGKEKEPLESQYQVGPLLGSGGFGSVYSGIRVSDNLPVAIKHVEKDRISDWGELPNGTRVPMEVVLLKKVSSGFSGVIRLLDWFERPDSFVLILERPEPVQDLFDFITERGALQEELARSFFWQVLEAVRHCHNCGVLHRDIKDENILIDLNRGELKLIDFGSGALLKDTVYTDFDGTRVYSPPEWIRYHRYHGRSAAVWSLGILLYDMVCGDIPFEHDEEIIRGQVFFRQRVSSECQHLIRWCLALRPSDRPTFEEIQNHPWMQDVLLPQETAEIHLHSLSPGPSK
IRAK1, sequence (P51617 whole entry): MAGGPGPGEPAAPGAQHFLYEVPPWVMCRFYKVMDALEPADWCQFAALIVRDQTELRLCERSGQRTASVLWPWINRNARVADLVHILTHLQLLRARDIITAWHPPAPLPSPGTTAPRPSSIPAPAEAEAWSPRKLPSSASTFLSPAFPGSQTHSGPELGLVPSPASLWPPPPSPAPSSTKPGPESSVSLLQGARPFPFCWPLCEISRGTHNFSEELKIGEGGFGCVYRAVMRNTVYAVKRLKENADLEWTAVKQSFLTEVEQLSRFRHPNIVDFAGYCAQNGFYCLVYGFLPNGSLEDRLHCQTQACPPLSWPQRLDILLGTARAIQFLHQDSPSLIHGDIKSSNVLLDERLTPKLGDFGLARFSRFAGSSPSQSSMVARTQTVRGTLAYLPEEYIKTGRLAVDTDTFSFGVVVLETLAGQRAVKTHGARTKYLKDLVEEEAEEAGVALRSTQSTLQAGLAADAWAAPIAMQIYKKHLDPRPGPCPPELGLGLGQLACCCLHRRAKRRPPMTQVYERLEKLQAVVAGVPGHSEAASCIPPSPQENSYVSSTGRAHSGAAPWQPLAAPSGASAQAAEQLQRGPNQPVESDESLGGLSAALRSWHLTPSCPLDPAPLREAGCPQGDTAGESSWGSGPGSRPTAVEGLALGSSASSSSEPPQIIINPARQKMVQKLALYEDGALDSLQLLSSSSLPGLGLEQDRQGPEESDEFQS
T7 sequence (P49761 whole entry): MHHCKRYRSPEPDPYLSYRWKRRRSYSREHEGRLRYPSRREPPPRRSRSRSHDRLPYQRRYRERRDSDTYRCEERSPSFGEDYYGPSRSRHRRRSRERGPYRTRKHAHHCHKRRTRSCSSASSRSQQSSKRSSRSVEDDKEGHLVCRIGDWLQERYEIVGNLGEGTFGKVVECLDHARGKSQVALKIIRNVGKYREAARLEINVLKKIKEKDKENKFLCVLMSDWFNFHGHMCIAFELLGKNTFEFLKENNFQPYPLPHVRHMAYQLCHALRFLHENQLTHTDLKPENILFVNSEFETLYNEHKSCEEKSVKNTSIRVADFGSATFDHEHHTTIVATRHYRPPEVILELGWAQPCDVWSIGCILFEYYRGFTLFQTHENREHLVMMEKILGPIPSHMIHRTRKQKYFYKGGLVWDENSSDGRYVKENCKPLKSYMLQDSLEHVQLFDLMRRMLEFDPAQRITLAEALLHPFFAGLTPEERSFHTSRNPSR

| Structure (SMILES) | Residual activity (% of control) (DYRK1A [1]; 10 μM) | Residual activity (% of control) (PIM3; 10 μM) | Residual activity (% of control) (DYRK2 [2]; 10 μM) | Residual activity (% of control) (CLK1 [5]) | Residual activity (% of control) (DYRK1B [6]) | Residual activity (% of control) (PIM1; 10 μM) | Residual activity (% of control) (HIPK1; 10 μM) | Residual activity (% of control) (HIPK4) | Residual activity (% of control) (IRAK1) | Residual activity (% of control) (HIPK2 [7]; 10 μM) | Residual activity (% of control) (HIPK3; 10 μM) | Residual activity (% of control) (PIM2; 10 μM) | other results |
| --- | --- | --- | --- | --- | --- | --- | --- | --- | --- | --- | --- | --- | --- |
| COc1ccc2c(c1)[nH]c1c(C)nccc12 [Harmine, harmine] | […] | 78 % of control | 61 % of control | […] | […] | 85 % of control | 14 % of control | 90 % of control | 66 % of control | 34 % of control | 44 % of control | 43 % of control | Residual activity (% of control) (DYRK1A [1]; 1 μM): […]; IC50 (DYRK1A [1]; range of published values, read-out: Inhibition of DYRK1A IC50): […]; Residual activity (% of control) (PIM3; 1 μM): 74 % of control; Residual activity (% of control) (DYRK2 [2]; 1 μM): 35 % of control; Residual activity (% of control) DYRK2 (DYRK2 [3]): 92 % of control; Residual activity (% of control) DYRK1A (DYRK1A [4]): 27 % of control; IC50 (Haspin; ref Cuny et al. 38): 590 nM; Residual activity (% of control) (PIM1; 1 μM): 74 % of control; Residual activity (% of control) (HIPK1; 1 μM): 119 % of control; Residual activity (% of control) (HIPK2 [7]; 1 μM): 68 % of control; Residual activity (% of control) (HIPK3; 1 μM): 118 % of control; Residual activity (% of control) DYRK1B (DYRK1B [8]): 11 % of control; Residual activity (% of control) HIPK2 (HIPK2 [9]): 79 % of control; Residual activity (% of control) CLK1 (CLK1 [10]): 23 % of control; Residual activity (% of control) (PIM2; 1 μM): 101 % of control |
| N#CCn1c2c(Br)nccc2c2ccc(Cl)c(Cl)c21 [AnnH79] |  |  |  |  |  |  |  |  |  |  |  |  | inhibition of DYRK1A-catalysed SF3B1 Thr434 phosphorylation (DYRK1A [11]): does not inhibit DYRK1A |
| COc1ccc2c3ccnc(C(F)(F)F)c3n(CCCCN)c2c1 [LDN-211898] | 0 % of control | 11 % of control | 14 % of control | 0 % of control | 2 % of control | 9 % of control | 59 % of control | 72 % of control | 47 % of control | 47 % of control | 51 % of control | 36 % of control | Residual activity (% of control) (Haspin; 10 μM): 0 % of control; Residual activity (% of control) (CLK3): 63 % of control; Residual activity (% of control) (CLK2): 1 % of control; Residual activity (% of control) (DYRK3): 3 % of control |
